Test results reported in patent US20260374766A1, “METHODS FOR TREATING CANCER” (Antares Therapeutics, Inc., priority 2022, published 2026).

Assays:
[1] = test system: H1299 p53 Y220C; test: Cell Proliferation Assay (CellTiter-Glo, CTG), H1299 p53 Y220C (NClH1299-inducible p53 Y220C); format: cell-based; conditions: Homo sapiens, NCI-H1299, 120 h, NClH1299-inducible p53 Y220C cells, 5 days, CellTiter-Glo
Summary of the method: (§1)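 Cells seeded at 250-500 per well and exposed to compound for 5 days. Viability read by CellTiter-Glo luminescence after 10 min at room temperature; IC50 calculated. H1299 lines carry Tet-One inducible p53 mutant constructs introduced by lentiviral transduction.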

[2] = test system: NUGC3 p53 Y220C; test: Cell Proliferation Assay (CellTiter-Glo, CTG), NUGC3 p53 Y220C; format: cell-based; conditions: Homo sapiens, NUGC-3, 120 h, NUGC3 cells, 5 days, CellTiter-Glo
Summary of the method: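 NClH1299 lines stably transduced with Tet-inducible p53 Y220C or R273H, plus NUGC3, were treated with compound for 5 days at 250-500 cells/well. IC50 derived from CellTiter-Glo luminescent signal after 10 min room-temperature incubation.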

[3] = biological target: T1, p53 Y220C mutant protein (amino acid residues 94-293) (Homo sapiens, UniProt P04637, Y220C); test: Surface Plasmon Resonance (SPR) assay, Kd_kinetic; format: binding; conditions: SPR; p53 Y220C; read-out: SPR P53 Y220C KD kinetic
T1 construct: p53 Y220C mutant protein (amino acid residues 94-293)
T1 sequence (P04637 94-293, stated change not applied): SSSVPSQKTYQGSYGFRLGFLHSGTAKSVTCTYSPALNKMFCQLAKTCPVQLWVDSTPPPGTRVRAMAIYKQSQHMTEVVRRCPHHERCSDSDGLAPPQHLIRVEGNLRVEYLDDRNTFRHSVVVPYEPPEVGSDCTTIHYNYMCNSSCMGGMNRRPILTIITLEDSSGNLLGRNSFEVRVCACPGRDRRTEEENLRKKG
Summary of the method: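 Binding measured by SPR on a Biacore 8K in running buffer of 50 mM Tris pH 7.5, 100 mM NaCl, 1 mM DTT, 0.01% Brij35, 0.05% Tween-20, 1% DMSO.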

[4] = test system: H1299 p53 R273H; test: Cell Proliferation Assay (CellTiter-Glo, CTG), H1299 p53 R273H (NClH1299-inducible p53 R273H); format: cell-based; conditions: Homo sapiens, NCI-H1299, 120 h, NClH1299-inducible p53 R273H cells, 5 days, CellTiter-Glo
Summary of the method: as §1

[5] = biological target: p53 Y220C (Homo sapiens, UniProt P04637, Y220C); test: Luciferase Reporter Assay (Luc), p53 response element, NClH1299 cells with inducible p53 Y220C; format: cell-based; conditions: luciferase reporter, NClH1299 inducible p53 Y220C, 6 hour; for AC50: read-out: Luc P53 Y220C AC50
Summary of the method: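 Doxycycline (0.5 ug/mL, 24 h) induces the mutant before a 6-hour compound treatment. Reporter activity is then quantified by One-Glo luminescence.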

Compound | IC50 [1] | IC50 [2] | Kd [3] | IC50 [4] | AC50 [5] | Emax [5]
CNC(=O)c1cc(F)c(OC)c(NCC#Cc2cc3c(N[C@@H]4CCN(C)C[C@@H]4F)nccn3c2SC(F)(F)F)c1 [Example 337] | < 750 nM | < 750 nM | < 10 nM | < 5000 nM | < 750 nM | > 90%
COc1cc(S(C)(=O)=O)ccc1NCC#Cc1nn2c(N[C@@H]3CCN(C)C[C@@H]3F)cccc2c1SC(F)(F)F [Example 363] | < 750 nM | < 750 nM | < 10 nM | ≥ 10000 nM | < 750 nM | 80 to 90%
O=C(NCC1COC1)c1ccc(NCC#Cc2cc3c(N[C@@H]4CCNC[C@@H]4F)cccn3c2SC(F)(F)F)cc1 [Example 364] | < 750 nM | < 750 nM | < 10 nM | < 5000 nM | < 750 nM | 70 to 80%
O=C(NC[C@H]1CCO1)c1ccc(NCC#Cc2cc3c(N[C@@H]4CCNC[C@@H]4F)cccn3c2SC(F)(F)F)cc1 [Example 365] | < 750 nM | < 750 nM | < 10 nM | < 5000 nM | < 750 nM | 80 to 90%
O=C(NCC1(O)CC1)c1ccc(NCC#Cc2cc3c(N[C@@H]4CCNC[C@@H]4F)cccn3c2SC(F)(F)F)cc1 [Example 367] | < 750 nM | < 750 nM | < 10 nM | 8000 to 10000 nM | < 750 nM | > 90%
O=C(NC[C@@H]1CCO1)c1ccc(NCC#Cc2cc3c(N[C@@H]4CCNC[C@@H]4F)cccn3c2SC(F)(F)F)cc1 [Example 368] | < 750 nM | < 750 nM | < 10 nM | 5000 to 8000 nM | < 750 nM | 80 to 90%
O=C(NC[C@H]1COCCO1)c1ccc(NCC#Cc2cc3c(N[C@@H]4CCNC[C@@H]4F)cccn3c2SC(F)(F)F)cc1 [Example 369] | < 750 nM | < 750 nM | < 10 nM | 5000 to 8000 nM | < 750 nM | > 90%
COc1cc(S(C)(=O)=O)ccc1NCC#Cc1cc2c(N[C@@H]3CCNC[C@@H]3F)cccn2c1SC(F)(F)F [Example 370] | < 750 nM | < 750 nM | < 10 nM | 5000 to 8000 nM | < 750 nM | > 90%
C[C@@H](O)[C@@H](C)NC(=O)c1ccc(NCC#Cc2cc3c(N[C@@H]4CCN(C)C[C@@H]4F)cccn3c2SC(F)(F)F)cc1 [Example 371] | < 750 nM | < 750 nM | < 10 nM | 8000 to 10000 nM | < 750 nM | > 90%
CC(C)(O)CNC(O)c1ccc(NCC#Cc2cc3c(N[C@@H]4CCNC[C@@H]4F)cccn3c2SC(F)(F)F)cc1 (stereo partly drawn) [Example 372] | < 750 nM | < 750 nM | < 10 nM | 8000 to 10000 nM | < 750 nM | > 90%
O=C(N[C@H]1C[C@H](O)C1)c1ccc(NCC#Cc2cc3c(N[C@@H]4CCNC[C@@H]4F)cccn3c2SC(F)(F)F)cc1 [Example 373] | < 750 nM | < 750 nM | < 10 nM | ≥ 10000 nM | < 750 nM | 80 to 90%
COc1cc(C(=O)NCC(C)(C)O)ccc1NCC#Cc1cc2c(N[C@@H]3CCN(C)C[C@@H]3F)cccn2c1SC(F)(F)F [Example 375] | < 750 nM | < 750 nM | < 10 nM | 8000 to 10000 nM | < 750 nM | > 90%
C[C@H](O)[C@@H](C)NC(=O)c1ccc(NCC#Cc2cc3c(N[C@@H]4CCN(C)C[C@@H]4F)cccn3c2SC(F)(F)F)cc1 [Example 376] | < 750 nM | < 750 nM | < 10 nM | ≥ 10000 nM | < 750 nM | > 90%
COc1cc(C(=O)N2CC(C)(O)C2)ccc1NCC#Cc1cc2c(N[C@@H]3CCN(C)C[C@@H]3F)cccn2c1SC(F)(F)F [Example 377] | < 750 nM | < 750 nM | < 10 nM | 5000 to 8000 nM | < 750 nM | > 90%
COc1cc(P(C)(C)=O)ccc1NCC#Cc1cn2c(N[C@@H]3CCN(C)C[C@@H]3F)cccc2c1SC(F)(F)F [Example 378] | < 750 nM | < 750 nM | < 10 nM | ≥ 10000 nM | < 750 nM | 80 to 90%
COc1cc(P(C)(C)=O)ccc1NCC#Cc1cc2c(N[C@@H]3CCNC[C@@H]3F)cccn2c1SC(F)(F)F [Example 379] | < 750 nM | < 750 nM | < 10 nM | ≥ 10000 nM | < 750 nM | > 90%
CN1CCO[C@@H](CNC(=O)c2ccc(NCC#Cc3cc4c(N[C@@H]5CCN(C)C[C@@H]5F)cccn4c3SC(F)(F)F)cc2)C1 [Example 380] | < 750 nM | < 750 nM | < 10 nM | 5000 to 8000 nM | < 750 nM | 80 to 90%
CNC(=O)c1ccc(OC)c(NCC#Cc2cn3c(N[C@@H]4CCNC[C@@H]4F)cccc3c2SC(F)(F)F)c1 [Example 381] | < 750 nM | < 750 nM | < 10 nM | 8000 to 10000 nM | < 750 nM | > 90%
CN1CC[C@@H](Nc2cccn3c(SC(F)(F)F)c(C#CCNc4ccc(C(=O)NC[C@H]5CCO5)cc4)cc23)[C@@H](F)C1 [Example 382] | < 750 nM | < 750 nM | < 10 nM | 8000 to 10000 nM | < 750 nM | > 90%
C[C@H](O)[C@H](C)NC(=O)c1ccc(NCC#Cc2cc3c(N[C@@H]4CCN(C)C[C@@H]4F)cccn3c2SC(F)(F)F)cc1 [Example 383] | < 750 nM | < 750 nM | < 10 nM | 8000 to 10000 nM | < 750 nM | > 90%
